Calls of active or inactive are those of the source. The rule behind the calls is not given here.
Experiments:
[1] = target: GABA-A receptor; anion channel; assay: In vitro affinity at the Benzodiazepine receptor (BzR) is its ability to displace [3H]diazepam from BzR.; assay type: protein-complex assay, Rattus norvegicus
[2] = Solubility in water.; assay type: physicochemical; conditions: read-out: S
Monkey [3] = assay: Anxiogenic activity in vivo in Rhesus monkeys; Potent activity; assay type: functional, organism-based; conditions: Cercopithecidae
Rattus norvegicus [4] = assay: In vivo proconvulsant activity in rats; assay type: functional
Mus musculus [5] = assay: Dose required to induce convulsions in 50% of the mice that had been previously treated by a subconvulsant dose of pentylenetetrazole (40 mg/kg)
Rattus norvegicus [6] = species on record: Rattus norvegicus; assay: Dose required to induce convulsions in 50% of the rats; assay type: functional
Monkey [7] = assay: Anxiogenic activity in vivo in Rhesus monkeys; assay type: functional; conditions: Cercopithecidae, in Macaca mulatta
Mus musculus [8] = assay: Dose required to induce convulsions in 50% of the mice.(In vivo proconvulsant activity.)
Mus musculus [9] = assay: In vivo dose required to induce convulsions in 50% of the mice previously treated by a subconvulsant dose of pentylenetetrazole (40 mg/kg)
Mus musculus [10] = assay: Dose required to induce convulsions in 50% of the mice.(In vivo convulsant activity.)

IC50 [1] [nM] | solubility [2] [µg/mL] | Compound | also measured
> 2000 | – | c1ccc2c(c1)ccn1c2nc2c3c4ccccc4nc-3c[nH]c21 | –
24 | 12000 | CCOc1cc2c3ccccc3nc-2c[nH]1.Cl | ED50 (Monkey [3]): Active; ED50 (Rattus norvegicus [4]): 7 mg/kg; ED50 (Mus musculus [5]): 7 mg/kg
> 125 | – | c1ccc2c(c1)ccc1c3[nH]cc4nc5ccccc5c-4c3[nH]c21 | –
> 1000 | – | c1ccc2c3c4ncc5[nH]c6ccccc6c5c4nc-3c[nH]c2c1 | –
10.6 | 7600 | Cl.c1ccc2c(c1)[nH]c1c[nH]c3c4cccnc4nc-3c12 | ED50 (Mus musculus [9]): 11 mg/kg
> 3000 | – | c1ccc2c(c1)ccc1nc3c4c5ccccc5nc-4c[nH]c3n12 | –
> 125 | – | c1ccc2c(c1)ccc1[nH]c3c4c5ccccc5nc-4c[nH]c3c12 | –
39 | – | c1ccc2c(c1)[nH]c1cnc3c(nc4ccccn43)c12 | –

Continued, compound first:

Compound | IC50 [1] [nM] | solubility [2] [µg/mL] | also measured
CCOC(=O)c1cc2c(cn1)[nH]c1ccccc12 | – | < 200 | ED50 (Rattus norvegicus [6]): 3.2 mg/kg; ED50 (Monkey [7]): 2.5 mg/kg; ED50 (Rattus norvegicus [4]): 75 mg/kg
Cl.c1ccc2c(c1)[nH]c1c2ncc2[nH]c3ccccc3c21 | – | < 2000 | ED50 (Mus musculus [8]): 15.5 mg/kg
Cl.c1ccc2c(c1)[nH]c1c[nH]c3c4ccncc4nc-3c12 | 51.5 | 13000 | ED50 (Mus musculus [9]): 25 mg/kg
CCc1c(C(=O)OC)[nH]cc2nc3cc(OC)c(OC)cc3c1-2.Cl | 1 | < 200 | ED50 (Mus musculus [10]): 4 mg/kg
CCOC(=O)c1cc2c3ccccc3nc-2c[nH]1.Cl | – | 1000 | –
c1ccc2c(c1)cnn1c2nc2c3c4ccccc4nc-3c[nH]c21 | 200 | – | –
Cl.c1cnc2c3[nH]cc4[nH]c5ccccc5c4c-3nc2c1 | 10.2 | 11000 | –
